This note sets out measurements from patent US11299782B2, “Methods for predicting anti-cancer response” (Children's Medical Center Corporation, priority 2012, dated 2022).

The structures appear in SMILES notation.

This assay has as its system operable TNBC. As to the kind of experiment: Cisplatin-1 clinical trial: preoperative cisplatin monotherapy, pathologic response. The assay is classed as in vivo, human. The method, then: We performed a clinical trial, Cisplatin-1, in which 28 patients with operable TNBC were treated preoperatively with cisplatin monotherapy. […] A second trial, Cisplatin-2, accrued 51 patients with TNBC who received the same preoperative cisplatin regimen as Cisplatin-1, but in combination with the angiogenesis inhibitor bevacizumab (Ryan, P. D., et al. Neoadjuvant cisplatin and bevacizumab in triple negative breast cancer (TNBC): Safety and Efficacy. J Clin Oncol 2009; 27: 551). Response rate in Cisplatin-2 were similar to Cisplatin-1. […] In Cisplatin-2, 8 patients carried a germline BRCA1 or BRCA2 mutation, of which 4 patients achieved a pCR or near pCR to the cisplatin-bevacizumab regimen. In both trials, all patients had research sequencing to determine their germline BRCA1 and BRCA2 status. Thus in some aspects of all the embodiments of the invention, the BRCA1 and BRCA2 status can be determined either simultaneously with or before the allelic imbalance or telomeric allelic imbalance analysis. In some aspects, only patients without BRCA1 or BRCA2 mutations are subjected to the NAI (number of allelic imbalance) or NtAI (number of telomeric allelic imbalance) assays or analyses. Cisplatin was used as an example of platinum comprising cancer therapies. A total of 28 mainly sporadic TNBC patients were treated with cisplatin monotherapy in the neo-adjuvant setting (Silver et al. (2010) J. Clin. Oncol. 28, 1145-1153). Cisplatin response was measured using the semiquantitative Miller-Payne score by pathological assessment of surgical samples after therapy (Ogston et al. (2003) Breast 12, 320-327). […] Therapeutic response was measured using the semiquantitative Miller-Payne grading system, which estimates the percent reduction in invasive tumor volume and cellularity based on pathological assessment of surgical samples after therapy (Ogston, K. N., et al., A new histological grading system to assess response of breastcancers to primary chemotherapy: prognostic significance and survival. Breast 2003; 12: 320-327). […]

With `N.N.[Cl][Pt][Cl]` [cisplatin], where the note is “10 of 28 patients, preoperative cisplatin monotherapy”, the “patients with greater than 90% tumor reduction” value was determined as 36%. Moreover, the “patients progressed on therapy” value (of 28 patients) amounted to 4. For the same molecule, the “pathologic complete response (pCR), number of women” value (of 28 patients, 2 of them had BRCA1-associated cancers) is 6.
